Key:
ATR-Chk1 DDR pathway [1] = test: Defined SSB plasmid-induced checkpoint signaling in Xenopus HSS system (immunoblotting); assay type: biochemical, Xenopus laevis; details: for SSB-induced Chk1 phosphorylation (Chk1 P-S344): HSS with SSB plasmid 75 ng/μL, 30 min incubation, inhibitor added
Description: CTL or SSB plasmid was added to HSS at different concentrations as indicated, and incubated for 30 minutes. Extracts were examined via immunoblotting analysis for Chk1 phosphorylation (i.e., Chk1 P-Ser344) and total Chk1 (FIG. 8A). CTL or SSB plasmid was added to HSS at a final concentration of 75 ng/μL. After different time of incubation at room temperature, the extracts were examined via immunoblotting analysis (FIG. 8B). ATR inhibitor VE-822, ATM inhibitor KU55933, DNA-PK inhibitor NU7441, or recombinant geminin was added to HSS supplemented with CTL or SSB plasmid at a final concentration of […] for 30 minutes. Geminin or roscovitine was added to HSS supplemented with sperm chromatin and hydrogen peroxide. After a 45-min incubation, extracts were examined via immunoblotting analysis as indicated (FIG. 8F). CTL, SSB, or DSB plasmid was added to HSS at different concentrations as indicated. Samples were examined via immunoblotting analysis (FIG. 8G).
CTL or SSB plasmid was added to HSS with the presence or absence of VE-822. After 30-min incubation, Chk1 phosphorylation, RPA32 phosphorylation, and Rad17 phosphorylation were examined via immunoblotting analysis as indicated in the image in FIG. 9A. CTL or SSB plasmid was added to NPE with the presence or absence of VE-822 (ATR inhibitor) or Tautomycin (phosphatase inhibitor). Samples were examined via immunoblotting analysis as illustrated in FIG. 9B. For FIG. 9C, CTL or SSB plasmid was added to mock- or Pol alpha-depleted HSS. After 30-min incubation, samples were analyzed via immunoblotting analysis, as illustrated.
(§1) The care and use of Xenopus laevis was approved by the Institutional Animal Care and Use Committee (IACUC) of the University of North Carolina at Charlotte. The preparation of Xenopus LSS, HSS, and NPE were described previously (35,36,39, which are hereby incorporated by reference herein). […] DNA synthesis analysis was performed as previously described (11,35, which are hereby incorporated by reference herein). ImageQuat software was used to quantify the DNA synthesis from HSS/NPE system. […] DNA-bound fractions from the HSS system were isolated after spinning extracts through a sucrose cushion (0.9 M sucrose, 2.5 mM MgCl2, 50 mM KCl, 10 mM HEPES, pH7.7) at 10,000 rpm for 2 minutes at 4° C. with a swinging bucket.
To determine whether a defined SSB structure triggers a DDR pathway, different concentrations of SSB or CTL plasmid structure were added to HSS, followed by immunoblotting analysis after a 30-minute incubation.

U2OS cells = test: Hydrogen peroxide-induced ATR-Chk1 DDR in human U2OS cells (immunoblotting); assay type: cell-based; details: asynchronized U2OS cells; VE-822 5 μM 1 hour, then hydrogen peroxide 1.25 mM 4 hours
Description: FIGS. 11A-11B illustrate that hydrogen peroxide induces Chk1 phosphorylation and RPA32 phosphorylation in an ATR-dependent manner in human U2OS cells. FIG. 11A is a digital image of immunoblotting analysis of asynchronized U2OS cells treated with H2O2 and/or VE-822. Cell lysates were analyzed via immunoblotting analysis as indicated. G1 synchronized U2OS cells were treated with H2O2 and/or VE-822. Cell lysates were analyzed via immunoblotting analysis as indicated and illustrated in FIG. 11B.
Human U2OS cells were purchased from the American Type Culture Collection (ATCC) and cultured in Dulbecco's Modified Eagle Medium (DMEM, Life Technologies) supplemented with 10% fetal bovine serum (FBS, Invitrogen), penicillin (100 U/mL) and streptomycin (100 μg/mL, Life Technologies) in incubator at 37° C. and 5% CO2. […] Cells were treated with VE-822 (5 μM) in culture medium for 1 hour followed by hydrogen peroxide treatment (1.25 mM) for 4 hours. Then cells were collected and split for immunoblotting analysis and FACS analysis. For immunoblotting analysis, equal total proteins of cell lysates (10 μg per lane) were loaded and Tubulin was used for loading control. For FACS analysis, cells were further fixed and stained with DAPI followed by cell cycle profiling using FACS machine (BD LSRFortessa) following manufacturer's standard protocol.

SSB repair = SSB repair of SSB plasmid in the HSS system (agarose gel); assay type: biochemical, Xenopus laevis; details: SSB plasmid in HSS with or without VE-822; circular/(circular+nicked)
Description: FIGS. 6A-6D illustrate verification and analysis of the defined DNA structures. FIG. 6A is an image verifying the defined SSB structure on agarose gel (Ethidium bromide staining). CTL plasmid was added to HSS for different time. Then DNA samples were isolated and treated with or without Sbfl, and analyzed on agarose gel (Ethidium bromide staining) as shown in FIG. 6B. For FIG. 6C, the SSB plasmid was added to HSS with or without VE-822 for different time as indicated. SSB repair products were isolated and examined on agarose gel (Ethidium bromide staining). FIG. 6D is a graph quantifying SSB repair capacity (circular/(circular+nicked)×100) with or without VE-822 treatment in the HSS system from FIG. 6C.
Nuclease-free water was added to each reaction of HSS that was incubated with SSB or DSB plasmid to a total of 300 μL. Equal volume of phenol-chloroform was added to the mixture and resuspended up and down 5 times and spin for 5 minutes at 13,000 rpm at room temperature. The top aqueous layer was transferred to a new tube and repeat phenol-chloroform extraction. […] Then the purified DNA repair products were analyzed on agarose gel and stained with ethidium bromide. […]

ATR-Chk1 DDR pathway [2] = test: Plasmid-induced Chk1 phosphorylation in NPE (immunoblotting); assay type: biochemical, Xenopus laevis
Description: After 30-min incubation, Chk1 phosphorylation, RPA32 phosphorylation, and Rad17 phosphorylation were examined via immunoblotting analysis as indicated in the image in FIG. 9A. […] Samples were examined via immunoblotting analysis as illustrated in FIG. 9B. For FIG. 9C, CTL or SSB plasmid was added to mock- or Pol alpha-depleted HSS. After 30-min incubation, samples were analyzed via immunoblotting analysis, as illustrated.
as §1

ATR-Chk1 DDR pathway [3] = test: Hydrogen peroxide-induced Chk1 phosphorylation in HSS supplemented with sperm chromatin (immunoblotting); assay type: biochemical, Xenopus laevis; details: HSS with sperm chromatin and hydrogen peroxide, 45-min incubation
Description: FIGS. 8A-8G illustrate that the ATR-Chk1 DNA damage response pathway is induced by the defined SSB structure in the HSS system. CTL or SSB plasmid was added to HSS at different concentrations as indicated, and incubated for 30 minutes. Extracts were examined via immunoblotting analysis for Chk1 phosphorylation (i.e., Chk1 P-Ser344) and total Chk1 (FIG. 8A). CTL or SSB plasmid was added to HSS at a final concentration of 75 ng/μL. After different time of incubation at room temperature, the extracts were examined via immunoblotting analysis (FIG. 8B). ATR inhibitor VE-822, ATM inhibitor KU55933, DNA-PK inhibitor NU7441, or recombinant geminin was added to HSS supplemented with CTL or SSB plasmid at a final concentration of […] for 30 minutes. Geminin or roscovitine was added to HSS supplemented with sperm chromatin and hydrogen peroxide. After a 45-min incubation, extracts were examined via immunoblotting analysis as indicated (FIG. 8F). CTL, SSB, or DSB plasmid was added to HSS at different concentrations as indicated. Samples were examined via immunoblotting analysis (FIG. 8G).
The care and use of Xenopus laevis was approved by the Institutional Animal Care and Use Committee (IACUC) of the University of North Carolina at Charlotte. […] ImageQuat software was used to quantify the DNA synthesis from HSS/NPE system. […]

Molecule: Nc1ccc2c3c(cccc13)C(=O)NC2=O [4-Amino-1,8-naphthalimide]
- SSB-induced Chk1 phosphorylation (Chk1 P-S344) (ATR-Chk1 DDR pathway [1]): enhanced

Molecule: O=c1cc(-c2cccc3c2Sc2ccccc2S3)oc(N2CCOCC2)c1 [KU55933]
- SSB-induced Chk1 phosphorylation (Chk1 P-S344) (ATR-Chk1 DDR pathway [1]): almost had no effect

Molecule: O=c1cc(N2CCOCC2)oc2c(-c3cccc4c3sc3ccccc34)cccc12 [NU7441]
- SSB-induced Chk1 phosphorylation (Chk1 P-S344) (ATR-Chk1 DDR pathway [1]): almost had no effect

Molecule: CNCc1ccc(-c2cc(-c3nc(-c4ccc(S(=O)(=O)C(C)C)cc4)cnc3N)on2)cc1 [VE-822]
- SSB-induced Chk1 phosphorylation (Chk1 P-S344) (ATR-Chk1 DDR pathway [1]): compromised
- SSB-induced RPA32 phosphorylation (ATR-Chk1 DDR pathway [1]; HSS with SSB plasmid, 30 min): sensitive
- SSB-induced Rad17 phosphorylation (ATR-Chk1 DDR pathway [1]; HSS with SSB plasmid, 30 min): sensitive
- hydrogen peroxide-induced Chk1 phosphorylation (U2OS cells): prevented
- hydrogen peroxide-induced RPA32 phosphorylation (U2OS cells): prevented
- SSB repair in the HSS system (SSB repair): compromised
- Chk1 phosphorylation events in NPE (SSB plasmid- and CTL plasmid-induced) (ATR-Chk1 DDR pathway [2]; NPE with the presence of tautomycin): inhibited

Molecule: C[C@@]1(CO)[C@H](O)CC[C@@]2(C)[C@H]1CC[C@H]1C[C@@H]3C[C@@]12CC[C@]3(O)CO [aphidicolin]
- SSB-induced Chk1 phosphorylation (Chk1 P-S344) (ATR-Chk1 DDR pathway [1]): not affected

Molecule: CC[C@H](CO)Nc1nc(NCc2ccccc2)c2ncn(C(C)C)c2n1 [rescovitine]
- hydrogen peroxide-induced Chk1 phosphorylation in the HSS (ATR-Chk1 DDR pathway [3]): had no effect

Molecule: CO[C@H]([C@H](O)CC(=O)[C@@H](C)[C@@H](O)CC[C@@H](C)[C@@H]1O[C@]2(CC[C@@H](C)[C@H](CC[C@H](C)C(C)=O)O2)CC[C@@H]1C)[C@H](OC(=O)C[C@@H](O)C1=C(C)C(=O)OC1=O)C(C)C [tautomycin]
- SSB plasmid-triggered Chk1 phosphorylation in NPE (ATR-Chk1 DDR pathway [2]; with the presence of tautomycin, no detectable Chk1 phosphorylation without it): very robust

B1: geminin: MCM helicase inhibitor recombinant geminin protein (protein, UniProt O75496 1-209, looked up)
Geminin: MNPSMKQKQEEIKENIKNSSVPRRTLKMIQPSASGSLVGRENELSAGLSKRKHRNDHLTSTTSSPGVIVPESSENKNLGGVTQESFDLMIKENPSSQYWKEVAEKRRKALYEALKENEKLHKEIEQKDNEIARLKKENKELAEVAEHVQYMAELIERLNGEPLDNFESLDNQEFDSEEETVEDSLVEDSEIGTCAEGTVSSSTDAKPCI
- SSB-induced Chk1 phosphorylation (Chk1 P-S344) (ATR-Chk1 DDR pathway [1]): not impaired
- hydrogen peroxide-induced Chk1 phosphorylation in the HSS (ATR-Chk1 DDR pathway [3]): had no effect

From patent publication US20220315933A1, “SYSTEMS AND METHODS FOR SINGLE-STRAND BREAK SIGNALING AND REPAIR IN A CELL-FREE SYSTEM AND METHODS OF IDENTIFYING MODULATORS OF SINGLE-STRAND BREAK SIGNALING AND REPAIR” (University of North Carolina Charlotte, priority 2017, published 2022)
